Here are results for 13 molecules from US9850283B2, “Macrocyclic inhibitors of the PD-1/PD-L1 and CD80(B7-1)/PD-L1 protein/protein interactions” (BRISTOL-MYERS SQUIBB COMPANY, priority 2013, dated 2017).

One assay deals with T1, Human PD-L1/PD-1 (Homo sapiens, UniProt Q9NZQ7).
T1 construct: made in house; host or cells: HEK293T
Description: HTRF PD-1-Ig/PD-L1-His binding assay (human PD-L1). Particulars: cluster symbol; read-out: HTRF IC50 cluster. In short, it runs like this:
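Readout: time-resolved FRET between Eu cryptate-labeled anti-Ig (1 nM final) and APC-labeled anti-His (20 nM final) antibodies. These detect interaction of Fc-fused PD-1 with His-tagged human PD-L1 in dPBS containing 0.1% BSA and 0.05% Tween-20.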

Assay [1] concerns the target T2, LK35.2-hPD-L1 cells / PE-labeled PD-1-Ig (Homo sapiens, UniProt Q9NZQ7).
T2 construct: expressed in transfected cells; host or cells: LK35.2 mouse B cell line
Description: LK35.2-hPD-L1 cell binding high-content screening assay. The class given is cell-based. As to conditions: cluster symbol, read-out: CBA IC50 cluster. In short, it runs like this:
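Compound effect on PD-1/PD-L1 binding is measured by imaging cell-associated phycoerythrin signal. Human PD-1-Ig (PE on Ig tag, 1 nM final) is applied with compound to a murine B cell line overexpressing human PD-L1 for 1 h at 37 °C in serum-containing RPMI.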

Setting [2] is: cell line of CBA not given (LK35.2-hPD-L1 or 293T-hPD-L1).
The mark [3] stands for this setting: cell binding assay, cell line not given.

Like-named read-outs stand apart in the source and are kept apart here. Starred links: 1 amine or outer side, 2 acyl side, 3 side chain; linkers in the order of their positions; H or OH if unused. Positions of bridges follow the written chain, without caps; N, C: chain ends. Non-standard residues stand in square brackets, D forms with d. Residues, ends and D or L forms follow the SMILES beside them. ξ: configuration not given here. Phe(2,4-Cl2) = N[C@@H](Cc1ccc(Cl)cc1Cl)C(=O)O; Phe(4-CH2NH2) = NCc1ccc(C[C@H](N)C(=O)O)cc1; Phe(3-CN) = N#Cc1cccc(C[C@H](N)C(=O)O)c1; X11 = CC1(C)CC[C@H](C(=O)[*:2])N1[*:1]; Bta = N[C@@H](Cc1csc2ccccc12)C(=O)O; cisHyp = O=C(O)[C@@H]1C[C@H](O)CN1; Hyp = O=C(O)[C@@H]1C[C@@H](O)CN1; NMeF = CN[C@@H](Cc1ccccc1)C(=O)O; NMeNle = CCCC[C@H](NC)C(=O)O; NMeS = CN[C@@H](CO)C(=O)O; NMeA = CN[C@@H](C)C(=O)O; Orn = NCCC[C@H](N)C(=O)O; Dab = NCC[C@H](N)C(=O)O; Dap = NC[C@H](N)C(=O)O; ξC = NC(CS)C(=O)O; Sar = CNCC(=O)O Some results are limits rather than exact numbers.

T1 sequence (Q9NZQ7 with tags, fused parts or gaps): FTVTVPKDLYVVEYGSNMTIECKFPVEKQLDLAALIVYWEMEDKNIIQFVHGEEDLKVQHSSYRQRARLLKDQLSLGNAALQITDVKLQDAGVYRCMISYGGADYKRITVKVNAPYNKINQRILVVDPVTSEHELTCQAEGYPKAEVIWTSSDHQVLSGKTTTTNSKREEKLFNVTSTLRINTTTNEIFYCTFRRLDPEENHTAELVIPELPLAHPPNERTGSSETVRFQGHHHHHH
T2 sequence (Q9NZQ7 19-290): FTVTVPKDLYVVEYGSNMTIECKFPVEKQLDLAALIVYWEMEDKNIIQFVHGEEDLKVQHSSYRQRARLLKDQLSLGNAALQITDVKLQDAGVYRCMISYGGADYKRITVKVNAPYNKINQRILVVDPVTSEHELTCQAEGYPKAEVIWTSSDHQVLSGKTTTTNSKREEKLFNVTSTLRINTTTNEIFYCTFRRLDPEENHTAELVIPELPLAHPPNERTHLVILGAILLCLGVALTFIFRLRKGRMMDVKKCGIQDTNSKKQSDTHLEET

Consider `CC(C)C[C@@H]1NC(=O)[C@H](Cc2c[nH]cn2)NC(=O)[C@@H]2CCCN2C(=O)[C@H](CC(N)=O)NC(=O)[C@H](C)N(C)C(=O)[C@H](Cc2ccccc2)NC(=O)CSC[C@@H](C(=O)NCC(N)=O)NC(=O)[C@H](CCCNC(=N)N)NC(=O)[C@H](C)N(C)C(=O)[C@H](Cc2ccc(-c3ccccc3)cc2)NC(=O)[C@H](Cc2c[nH]c3ccccc23)NC(=O)[C@H](CO)NC(=O)[C@H](Cc2c[nH]c3ccccc23)NC(=O)CN(C)C1=O` [Example 1032] (HELM PEPTIDE1{[O=C(C[*:3])[*:2]].F.[meA].N.P.H.L.[Sar].W.S.W.[O=C([C@H](Cc1ccc(-c2ccccc2)cc1)N[*:1])[*:2]].[meA].R.C.G.[am]}$PEPTIDE1,PEPTIDE1,1:R3-15:R3$$$V2.0), for which the IC50 – broadly, the point on the concentration scale where inhibition reaches its midpoint – on Human PD-L1/PD-1 was over 30.5 nM; in assay [1] (setting [2]), over 74.3 nM.
The like results for `CCCC[C@H]1C(=O)N2CCC[C@@H]2C(=O)N[C@@H](CC(=O)O)C(=O)N[C@@H](C(C)C)C(=O)N(C)[C@@H](Cc2ccccc2)C(=O)N[C@@H](CCCCN)C(=O)N2CCC[C@@H]2C(=O)N[C@@H](Cc2c[nH]c3ccccc23)C(=O)N[C@@H](Cc2ccc(O)cc2)C(=O)N[C@@H](CC(C)C)C(=O)N[C@H](C(=O)NCC(N)=O)CSCC(=O)N[C@@H](Cc2ccccc2)C(=O)N(C)[C@@H](Cc2ccccc2)C(=O)N1C` [Example 3187] (HELM PEPTIDE1{[O=C(C[*:3])[*:2]].F.[meF].[CCCC[C@@H](C(=O)[*:2])N(C)[*:1]].[dP].D.V.[meF].K.[dP].W.Y.L.C.G.[am]}$PEPTIDE1,PEPTIDE1,1:R3-14:R3$$$V2.0) were, in that order, 6.76 to 30.3 nM and 0.158 to 4.71 nM.
As for `CCCC[C@H]1C(=O)N(C)[C@@H](CCCC)C(=O)N[C@@H](CCCNC(=N)N)C(=O)NC(C(=O)NCC(N)=O)CSCC(=O)N[C@@H](Cc2ccc(O)cc2)C(=O)N(C)[C@@H](CO)C(=O)N[C@@H](CC(N)=O)C(=O)N2CCC[C@H]2C(=O)N[C@@H](Cc2cnc[nH]2)C(=O)N[C@@H](CC(C)C)C(=O)N2CCC[C@H]2C(=O)N[C@@H](Cc2c[nH]c3ccccc23)C(=O)N[C@@H](CO)C(=O)N[C@@H](Cc2c[nH]c3ccccc23)C(=O)N1C` (some centres unmarked) [Example 9038] ({CH2CO}-Y[NMeS]NPHLPWSW[NMeNle][NMeNle]R[ξC]G-NH2; thioether N-14), the IC50 was 6.76 to 30.3 nM at Human PD-L1/PD-1 and 4.78 to 72.9 nM in assay [1] (setting [3]).
`CCCC[C@H]1C(=O)N(C)CC(=O)N[C@@H](CC(=O)O)C(=O)N[C@@H](C(C)C)C(=O)N(C)[C@@H](Cc2ccccc2)C(=O)N[C@@H](Cc2ccc(O)cc2)C(=O)N2[C@H](CCC2(C)C)C(=O)N[C@@H](Cc2c[nH]c3ccccc23)C(=O)N[C@@H](Cc2ccc(O)cc2)C(=O)N[C@@H](CC(C)C)C(=O)N[C@H](C(=O)NCC(N)=O)CSCC(=O)N[C@@H](Cc2ccccc2)C(=O)N(C)[C@@H](Cc2ccccc2)C(=O)N1C` [Example 3184] ({CH2CO}-F[NMeF][NMeNle][Sar]DV[NMeF]Y[X11]WYLCG-NH2; thioether N-13): the IC50 at Human PD-L1/PD-1 is over 30.5 nM; in assay [1] (setting [2]), over 74.3 nM.
With `CCCC[C@H]1C(=O)N(C)[C@@H](CCCC)C(=O)N[C@@H](CCCNC(=N)N)C(=O)N[C@H](C(=O)NCC(N)=O)CSCC(=O)N[C@@H](Cc2ccc(CN)cc2)C(=O)N(C)[C@@H](C)C(=O)N[C@@H](CC(N)=O)C(=O)N2CCC[C@H]2C(=O)N[C@@H](Cc2cnc[nH]2)C(=O)N[C@@H](CC(C)C)C(=O)N2C[C@H](O)C[C@H]2C(=O)N[C@@H](Cc2c[nH]c3ccccc23)C(=O)N[C@@H](CO)C(=O)N[C@@H](Cc2c[nH]c3ccccc23)C(=O)N1C` [Example 7053] ({CH2CO}-[Phe(4-CH2NH2)][NMeA]NPHL[Hyp]WSW[NMeNle][NMeNle]RCG-NH2; thioether N-14), the IC50 at Human PD-L1/PD-1 lay within 6.76 to 30.3 nM; in assay [1] (setting [3]), 4.78 to 72.9 nM.
The like results for `CCCC[C@H]1C(=O)N(C)[C@@H](CCCC)C(=O)N[C@@H](CCCNC(=N)N)C(=O)N[C@H](C(=O)NCC(N)=O)CSCC(=O)N[C@@H](Cc2ccc(Cl)cc2Cl)C(=O)N(C)[C@@H](C)C(=O)N[C@@H](CC(N)=O)C(=O)N2CCC[C@H]2C(=O)N[C@@H](Cc2cnc[nH]2)C(=O)N[C@@H](CC(C)C)C(=O)N2C[C@H](O)C[C@H]2C(=O)N[C@@H](Cc2c[nH]c3ccccc23)C(=O)N[C@@H](CO)C(=O)N[C@@H](Cc2c[nH]c3ccccc23)C(=O)N1C` [Example 7062] ({CH2CO}-[Phe(2,4-Cl2)][NMeA]NPHL[Hyp]WSW[NMeNle][NMeNle]RCG-NH2; thioether N-14) were, in that order, 0.385 to 6.74 nM and 4.78 to 72.9 nM.
Consider `CCCC[C@H]1C(=O)N(C)CC(=O)N[C@@H](CC(=O)O)C(=O)N[C@@H](C(C)C)C(=O)N(C)[C@@H](Cc2ccccc2)C(=O)N[C@@H](Cc2ccc(O)cc2)C(=O)N(C)CC(=O)N[C@@H](Cc2c[nH]c3ccccc23)C(=O)N[C@@H](Cc2ccc(O)cc2)C(=O)N[C@@H](CC(C)C)C(=O)N[C@H](C(=O)NCC(N)=O)CSCC(=O)N[C@@H](Cc2ccc(CN)cc2)C(=O)N(C)[C@@H](Cc2ccccc2)C(=O)N1C` [Example 3063] ({CH2CO}-[Phe(4-CH2NH2)][NMeF][NMeNle][Sar]DV[NMeF]Y[Sar]WYLCG-NH2; thioether N-13), for which the IC50 is over 30.5 nM at Human PD-L1/PD-1 and over 74.3 nM in assay [1] (setting [2]).
Regarding `CCCC[C@H]1C(=O)N(C)[C@@H](CCCC)C(=O)N[C@@H](CCCNC(=N)N)C(=O)N[C@H](C(=O)NCC(N)=O)CSCC(=O)N[C@@H](Cc2cccc(C#N)c2)C(=O)N(C)[C@@H](C)C(=O)N[C@@H](CC(N)=O)C(=O)N2CCC[C@H]2C(=O)N[C@@H](CN)C(=O)N[C@@H](CC(C)C)C(=O)N2C[C@H](O)C[C@H]2C(=O)N[C@@H](Cc2c[nH]c3ccccc23)C(=O)N[C@@H](CO)C(=O)N[C@@H](Cc2c[nH]c3ccccc23)C(=O)N1C` [Example 7037] ({CH2CO}-[Phe(3-CN)][NMeA]NP[Dap]L[Hyp]WSW[NMeNle][NMeNle]RCG-NH2; thioether N-14), the IC50 at Human PD-L1/PD-1 lay within 6.76 to 30.3 nM; in assay [1] (setting [3]), 4.78 to 72.9 nM.
The like results for `CCCC[C@H]1C(=O)N(C)[C@@H](CCCC)C(=O)N[C@@H](CCCNC(=N)N)C(=O)NC(C(=O)NCC(N)=O)CSCC(=O)N[C@@H](Cc2ccc(O)cc2)C(=O)N(C)[C@@H](C)C(=O)N[C@@H](CC(N)=O)C(=O)N2C[C@H](O)C[C@H]2C(=O)N[C@@H](Cc2cnc[nH]2)C(=O)N[C@@H](CC(C)C)C(=O)N2CCC[C@@H]2C(=O)N[C@@H](Cc2c[nH]c3ccccc23)C(=O)N[C@@H](CO)C(=O)N[C@@H](Cc2csc3ccccc23)C(=O)N1C` (some centres unmarked) [Example 9001] ({CH2CO}-Y[NMeA]N[Hyp]HL[dP]WS[Bta][NMeNle][NMeNle]R[ξC]G-NH2; thioether N-14) were, in that order, 6.76 to 30.3 nM and 0.158 to 4.71 nM.
As for `CCCC[C@H]1C(=O)N(C)[C@@H](CCCC)C(=O)N[C@@H](CCCN)C(=O)N[C@H](C(=O)NCC(N)=O)CSCC(=O)N[C@@H](Cc2ccc(O)cc2)C(=O)N(C)[C@@H](C)C(=O)N[C@@H](CC(N)=O)C(=O)N2CCC[C@H]2C(=O)N[C@@H](CN)C(=O)N[C@@H](CC(C)C)C(=O)N2C[C@H](O)C[C@H]2C(=O)N[C@@H](Cc2c[nH]c3ccccc23)C(=O)N[C@@H](CCN)C(=O)N[C@@H](Cc2csc3ccccc23)C(=O)N1C` [Example 1194] ({CH2CO}-Y[NMeA]NP[Dap]L[Hyp]W[Dab][Bta][NMeNle][NMeNle][Orn]CG-NH2; thioether N-14), the IC50 at Human PD-L1/PD-1 lay in the range of 0.385 to 6.74 nM; in assay [1] (setting [2]) it was 0.158 to 4.71 nM.
`CCCC[C@H]1C(=O)N(C)[C@@H](CCCC)C(=O)N[C@@H](C)C(=O)N[C@H](C(=O)NCC(N)=O)CSCC(=O)N[C@@H](Cc2ccc(O)cc2)C(=O)N2CCC[C@H]2C(=O)N[C@@H](CC(=O)O)C(=O)N2CCC[C@H]2C(=O)N[C@@H](CN)C(=O)N[C@@H](CC(C)C)C(=O)N2C[C@@H](O)C[C@H]2C(=O)N[C@@H](Cc2c[nH]c3ccccc23)C(=O)N[C@@H](CCN)C(=O)N[C@@H](Cc2c[nH]c3ccccc23)C(=O)N1C` [Example 1150] ({CH2CO}-YPDP[Dap]L[cisHyp]W[Dab]W[NMeNle][NMeNle]ACG-NH2; thioether N-14): the IC50 lay in the range of 0.385 to 6.74 nM at Human PD-L1/PD-1 and 0.158 to 4.71 nM in assay [1] (setting [2]).
In the case of `CCCC[C@H]1C(=O)N(C)[C@@H](CCCC)C(=O)N[C@@H](CCCNC(=N)N)C(=O)N[C@H](C(=O)NCC(N)=O)CSCC(=O)N[C@@H](Cc2ccccc2)C(=O)N(C)[C@@H](C)C(=O)N[C@@H](CC(N)=O)C(=O)N2CCC[C@H]2C(=O)N[C@@H](Cc2cnc[nH]2)C(=O)NCC(=O)N(C)CC(=O)N[C@@H](Cc2c[nH]c3ccccc23)C(=O)N[C@@H](CO)C(=O)N[C@@H](Cc2c[nH]c3ccccc23)C(=O)N1C` [Example 1053] ({CH2CO}-F[NMeA]NPHG[Sar]WSW[NMeNle][NMeNle]RCG-NH2; thioether N-14), the IC50 at Human PD-L1/PD-1 was over 30.5 nM; in assay [1] (setting [2]), over 74.3 nM.
Take `CCCC[C@H]1C(=O)N(C)[C@@H](CCCC)C(=O)N[C@@H]([C@@H](C)CC)C(=O)N[C@H](C(=O)NCC(N)=O)CSCC(=O)N[C@@H](Cc2ccccc2)C(=O)N(C)[C@@H](C)C(=O)N[C@@H](CC(N)=O)C(=O)N2CCC[C@H]2C(=O)N[C@@H](Cc2cnc[nH]2)C(=O)N[C@@H](CC(C)C)C(=O)N(C)CC(=O)N[C@@H](Cc2c[nH]c3ccccc23)C(=O)N[C@@H](CO)C(=O)N[C@@H](Cc2c[nH]c3ccccc23)C(=O)N1C` [Example 5018] ({CH2CO}-F[NMeA]NPHL[Sar]WSW[NMeNle][NMeNle]ICG-NH2; thioether N-14): the IC50 at Human PD-L1/PD-1 lay in the range of 6.76 to 30.3 nM; in assay [1] (setting [3]) it was 4.78 to 72.9 nM.
